Results as given in patent US20100210697A1, “PHARMACEUTICAL COMPOSITION FOR TREATMENT OF CATARACT” (R-TECH UENO, LTD., priority 2007, published 2010).

What was measured:
[1] = tested on: STZ induced diabetic rat; experiment: Cataract onset in STZ induced diabetic rats, repeated instillation into both eyes; assay type: in vivo, Rats (Crj: Wistar); details: for number of onset eyes / onset of cataract (conclusion in words): Day 46; for number of onset eyes / onset rate (Day 46): instilled 10 μL per eye, 3 times a day, test substance 1 0.01 wt %, test substance 2 2 wt %; for number of onset eyes: onset eyes/total eyes; for onset of cataract (conclusion in words): STZ induced diabetic rats, instillation; for onset rate (Day 46): saline pathology group 100%
Protocol: Rats (Crj: Wistar, male, 5-week-old) were purchased, grouped after acclimation for 6 days, and fasted for 20 hr.
After the fasting, Streptosotocin (hereinafter STZ, 50 mg/kg (2 mL/kg)) was administered to the tail vein.
After 24 hr from the STZ administration, the blood glucose level was measured, and the rats with blood glucose level of not less than 250 mg/dL were considered as STZ induced diabetic rat (measurement tool: ACCU-CHEK Aviva, Roche Diagnostics K.K.) (group 2-group 4).
From the next day of the blood glucose level measurement, saline, test substance 1 and test substance 2 were repetitively instilled to groups 2-4 into both eyes (10 μL for each eye) 3 times a day (9:00, 13:00, 17:00). The cataract suppression rate of the test substance at the time point when the onset of the pathology model group 2 reached 100% (Day 46) was determined. Saline was repetitively instilled in the same manner to the group free of streptosotocin administration (group 1).
In addition, the day when the nuclear part of the crystalline lens became obviously opaque was taken as the cataract onset day.
cataract onset rate: (number of cataract onset eyes/total number of eyes ×100)

[2] = tested on: rats given powder feed with 30% of galactose; experiment: Cataract onset in rats fed 30% galactose feed, repeated oral administration; assay type: in vivo, Rats (Crj: Wistar)
Text: Rats (Crj: Wistar, male, 3-week-old) were purchased and, from the next day (Day 0), a mixture of a powder feed (CRF-1, Oriental Yeast Co., ltd.) and 30% of galactose (special grade, Wako Pure Chemical Industries, Ltd., Lot# 075-00035) was freely given. From Day 0, test substance 1 was repetitively administered orally.
dissolution liquid: 0.5% methylcellulose solution test substance 1: N-{4-[2-(4-hydrazinocarbonylmethylphenyl)ethyl]-1,3-thiazol-2-yl}acetamide (compound described in Production Example)

SMILES	number of onset eyes [1]	onset of cataract (conclusion in words) [1]	onset rate (Day 46) [1] [%]	number of onset eyes (Day 20) ([2]; Day 20, oral, 0.5 wt %, 2 mL/kg once per day, vehicle group 8/12 eyes)	onset of cataract (conclusion in words) ([2]; galactose-fed rats, oral administration, 20 days)
CC(=O)Nc1nc(CCc2ccc(CCNC(=N)N)cc2)cs1 [test substance 2, N-(4-{2-[4-(2-{[amino(imino)methyl]amino}ethyl)phenyl]ethyl}-1,3-thiazol-2-yl)acetamide]	2/10	suppress the onset of cataract	20		
CC(=O)Nc1nc(CCc2ccc(CC(=O)NN)cc2)cs1 [test substance 1, N-{4-[2-(4-hydrazinocarbonylmethylphenyl)ethyl]-1,3-thiazol-2-yl}acetamide]	2/8	suppress the onset of cataract	25	3/12 eyes	suppresses the onset of cataract
